Source: publication PMC11253546, “Fidelity in plant hormone modifications catalyzed by Arabidopsis GH3 acyl acid amido synthetases” (The Journal of Biological Chemistry, 2024)

Columns and labels:
GH3-N2/C5 = system: T1, GH3-N2/C5; assay: coupled myokinase/pyruvate kinase/lactate dehydrogenase assay of AMP formation, A340; assay type: biochemical, Arabidopsis thaliana; conditions: 1 mM ATP, 5 mM aspartate, 1 mM MgCl2, pH 8.0, 25 °C
T1 construct: gene GH3.2; one fusion chain: AtGH3.2 residues 1-442 then AtGH3.5 residues 450-608; codon-optimized, pET-28a, His-tagged, E. coli Rosetta2 (DE3), monomer
Source text: coupled myokinase/pyruvate kinase/lactate dehydrogenase assay of AMP formation, A340 on GH3-N2/C5

AtGH3.11/JAR1 = molecular target: T2, AtGH3.11/JAR1 (Arabidopsis thaliana, UniProt Q9SKE2); assay: single-turnover TLC with [α-32P]ATP, acyl-AMP formation; assay type: biochemical; conditions: first half-reaction with JA, no amino acid, 1 mM MgCl2, pH 8.0, 25 °C; labelled compound
T2 sequence (Q9SKE2 1-575): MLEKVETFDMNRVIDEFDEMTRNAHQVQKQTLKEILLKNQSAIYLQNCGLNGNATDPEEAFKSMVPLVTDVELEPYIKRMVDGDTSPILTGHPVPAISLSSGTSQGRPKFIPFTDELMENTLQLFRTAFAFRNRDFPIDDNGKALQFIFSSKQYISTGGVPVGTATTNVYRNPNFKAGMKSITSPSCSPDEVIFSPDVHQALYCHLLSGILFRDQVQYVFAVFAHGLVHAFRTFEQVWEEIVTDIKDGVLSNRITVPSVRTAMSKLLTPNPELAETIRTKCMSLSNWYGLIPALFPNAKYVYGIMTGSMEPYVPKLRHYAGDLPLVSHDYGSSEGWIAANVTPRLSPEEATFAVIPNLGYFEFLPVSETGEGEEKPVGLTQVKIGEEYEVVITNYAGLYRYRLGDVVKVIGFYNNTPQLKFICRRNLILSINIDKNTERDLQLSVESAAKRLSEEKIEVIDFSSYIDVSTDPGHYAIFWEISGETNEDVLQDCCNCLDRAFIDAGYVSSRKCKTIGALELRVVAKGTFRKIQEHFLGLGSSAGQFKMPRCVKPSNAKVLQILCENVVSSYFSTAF

AtGH3.12/PBS3 = molecular target: T3, AtGH3.12/PBS3 (Arabidopsis thaliana, UniProt Q9LYU4); assay: TLC with [α-32P]ATP, acyl-AMP and AMP formation; assay type: biochemical; conditions: without or with glutamate, 1 mM MgCl2, pH 8.0, 25 °C
T3 construct: gene GH3.12; once misprinted PBS2
T3 sequence (Q9LYU4 1-575): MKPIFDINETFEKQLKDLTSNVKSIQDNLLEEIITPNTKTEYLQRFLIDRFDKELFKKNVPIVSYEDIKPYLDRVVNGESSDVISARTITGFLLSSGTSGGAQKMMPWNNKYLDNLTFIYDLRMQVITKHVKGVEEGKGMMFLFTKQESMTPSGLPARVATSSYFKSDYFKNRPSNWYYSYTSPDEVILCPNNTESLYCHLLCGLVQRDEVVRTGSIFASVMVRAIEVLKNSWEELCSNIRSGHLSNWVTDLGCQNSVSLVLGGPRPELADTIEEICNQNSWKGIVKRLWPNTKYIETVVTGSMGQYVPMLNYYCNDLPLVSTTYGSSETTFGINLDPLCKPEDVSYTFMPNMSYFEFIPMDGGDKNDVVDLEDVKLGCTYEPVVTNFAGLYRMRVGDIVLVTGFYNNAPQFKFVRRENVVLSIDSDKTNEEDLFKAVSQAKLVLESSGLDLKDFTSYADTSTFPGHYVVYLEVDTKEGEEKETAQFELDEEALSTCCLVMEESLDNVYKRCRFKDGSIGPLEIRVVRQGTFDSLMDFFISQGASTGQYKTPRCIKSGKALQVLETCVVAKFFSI

Km (GH3-N2/C5) | Structure (SMILES) | also measured
540 ± 17 µM | O=C(O)Cc1c[nH]c2ccccc12 [IAA] | –
– | Nc1ncnc2c1ncn2[C@@H]1O[C@H](COP(=O)(O)OP(=O)(O)OP(=O)(O)O)[C@@H](O)[C@H]1O [ATP] | single-turnover TLC with [α-32P]ATP, acyl-AMP formation (AtGH3.11/JAR1): rates of turnover from ATP to acyl-AMP (k1)
880 ± 68 µM | O=C(O)c1ccccc1 [BA] | –
– | C=C(O[C@@H]1C=C(C(=O)O)C=C[C@H]1O)C(=O)O [chorismate] | TLC with [α-32P]ATP, acyl-AMP and AMP formation (AtGH3.12/PBS3): reactions using BA, 4-HBA, and chorismate produced acyl-AMP and AMP

Structure (SMILES) | Km (GH3-N2/C5) | also measured
O=C(O)Cc1ccccc1 [PAA] | 1500 ± 280 µM | –
